Assay results published in patent US5622983A, “N-substituted cycloalkyl and polycycloalkyl α-substituted Trp-Phe- and phenethylamine derivatives” (Warner-Lambert Company, priority 1995, dated 1997).

Legend:
[1] = Palatable Diet Feeding assay; type: in vivo, rat; conditions: dose producing 50% of the maximum effect possible (zero food intake)
Experimental: In the Palatable Diet Feeding assay, adult male Hooded Lister rats weighing between 200-400 g were housed individually and trained to eat a palatable diet. This diet consisted of Nestles sweetened condensed milk, powdered rat food and rat water which when blended together set to a firm consistency. […] The intake of palatable diet was measured by weighing the food container before and after the 30-minute access period (limits of accuracy 0.1 g). Care was taken to collect and correct for any spillage of the diet. Rats had free access to pellet food and water except during the 30-minute test period.
After the training period, dose-response curves were constructed for CCK8 and several representative compounds of the present invention (n=8-10 rats per dose level).

[2] = Rat Elevated X-Maze Test; type: in vivo; conditions: 0.01 to 1.0 mg/kg s.c.
Experimental: The dose was equivalent to 0.1 mg/kg p.o. compound 20.

[3] = Antagonism of intra-accumbens amphetamine hyperactivity (antipsychotic activity); type: in vivo, rat; conditions: 10 mg/kg intraperitoneal; amphetamine 20 μg
Experimental: Male Sprague Dawley (CD) Bradford strain rats were used. The rats were housed in groups of five at a temperature of 21°±2° C. on a 12 hour light-dark cycle of lights-on between 07 hours 00 minutes and […]. Rats were fed CRM diet (Labsure) and allowed water ad libitum.
Rats were anesthetized with chloral hydrate (400 mg/kg SC) and placed in a Kopf stereotaxic frame. Chronically indwelling guide cannulae (constructedof stainless steel tubing 0.65 mm diameter held bilaterally in Parspex holders) were implanted using standard stereotaxic techniques to terminate 3.5 mm above the center of the nucleus accumbens (Ant. 9.4, Vert. 0.0, Lat. 1.6) or 5.0 mm above the central nucleus of the amygdala (Ant. 5.8, Vert. -1.8, Lat. ±4.5) (atlas of De Groot, 1959). The guides were kept patent during a 14-day recovery period using stainless steel stylers, 0.3 mm diameter, which extended 0.5 mmbeyond the guide tips.
Rats were manually restrained and the stylers removed. Intracerebral injection cannulae, 0.3 mm diameter, were inserted and drugs delivered in a volume of 0.5 μl over 5 seconds (a further 55 seconds was allowed for deposition) from Hamilton syringes attached via polythene tubing to the injection units. […]
The abilities of the compounds (20) and (20A) to inhibit the hyperactivity caused by the injection of amphetamine into the nucleus accumbens of the rat was measured. […]

[4] = tested on: LoVo (xenograft); experiment: LoVo xenograft growth in nude mice; type: in vivo
Experimental: One×10^6 LoVo cells in 0.1 mL serum-free RPMI were injected subcutaneously into the backs of 27 male nude mice. Xenografts were grown for 10 days prior to treatment, then randomly allocated to receive twice daily gavage with either 0.1 mL saline alone or containing 10 mg/kg/day of compound 20 for 20 days. Bidirectional tumor diameter was measured using vernier calipers and converted to volumes […]. The animals were sacrificed on Day 30. The protocol was approved by the UNSW Ethics committee.

[5] = Aspirin-induced gastric damage; type: in vivo, rat; conditions: 10 mg/kg PO
Experimental: Aspirin-induced gastric damage was assessed in groups of 10 rats each.
All animals were fasted for 24 hours before and throughout the experiment. Drug or vehicle was given 10 minutes before an oral dose of 1 mL of a 45-mg/mL suspension of aspirin in 0.5% carboxymethylcellulose (CMC).
The animals were sacrificed five hours after aspirin administration and the stomachs removed and opened for examination.

[6] = Flexor response in stimulated spinalized decerebrated rat preparation
[7] = Withdrawal from long-term drug or alcohol treatment, mouse light/dark box test; type: in vivo
Experimental: The effect of the compounds of the instant invention is illustrated, for example, in the mouse "light/dark box" test in FIGS. 5-12.
In FIG. 5, five animals were given nicotine, 0.1 mg/kg i.p.b.d. for 14 days. After a 24-hour withdrawal period, compound (20) was given at 1.0 mg/kg i.p.b.d.
FIG. 6 illustrates the effect of long-term treatment and withdrawal from nicotine using compound (20A). Five mice were given nicotine at 0.1 mg/kg i.p.b.d. for 14 days. After a withdrawal period of 24 hours, compound (20A) was given at 10 mg/kg i.p.b.d.
FIG. 7 illustrates the effect of long-term treatment and withdrawal from diazepam with intervention with compound (20). Five mice were given diazepam, at 10 mg/kg i.p.b.d. for seven days. Withdrawal was for a 24-hour period; compound 20 was given at 1.0 mg/kg i.p.b.d.
FIG. 8 illustrates the effect of compound (20A) on the long-term treatment and withdrawal from diazepam. Five mice were given diazepam at 10 mg/kg i.p.b.d. for seven days. After a withdrawal period of 24 hours, compound (20A) was given at 10 mg/kg i.p.b.d.
FIG. 9 illustrates the effect compound (20A) on the long-term treatment and withdrawal from alcohol. Five mice were given alcohol in drinking water 8% w/v for 14 days. After a withdrawal period of 24 hours, compound (20) was given at 1.0 mg/kg i.p.b.d.
Five mice were given alcohol in drinking water, 8% w/v for 14 days. After a withdrawal period of 24 hours, compound (20A) was given at 10 mg/kg i.p.b.d.
FIG. 11 illustrates the effectiveness in the long-term treatment and withdrawal from cocaine. Five mice were given cocaine as 1.0 mg/kg i.p.b.d. for 14 days.
Five mice were given cocaine at 1.0 mg/kg i.p.b.d. for 14 days after a withdrawal period of 24 hours, compound (20a) was given at 1.0 mg/kg i.p.b.d.

For `CC(Cc1c[nH]c2ccccc12)(NC(=O)OC1C2CC3CC(C2)CC1C3)C(=O)NCC(NC(=O)CCC(=O)O)c1ccccc1` (stereo not drawn) [Example 20, [R-(R*,R*)-4-[[2-[[3-(1H-indol-3-yl)-2-methyl-1-oxo-2-[[(tricyclo[3.3.1.1^3,7]dec-2-yloxy)carbonyl]amino]propyl]amino]-1-phenylethyl]amino]-4-oxobutanoic acid], the “Inhibition of Feeding on Rat Palatable Diet Assay I.P. MPE50” value [1] was 17.4 mg/kg, the “anxiolytic effect, time spent in the open arm end section (FIG. 14)” value [2] was “anxiolytic effects” and the “hyperactivity caused by intra-accumbens injection of amphetamine” value [3] was “reduced the hyperactivity”. For the same compound, the “reduction of tumor volume at Day 30 compared to control” value ([4]; 10 mg/kg/day by gavage for 20 days) was 53%, the “tumor growth overall, mean tumor volume (FIG. 17)” value ([4]; 10 mg/kg/day orally, 20 days, p <0.05, ANOVA) was “significantly inhibited tumor growth overall” and the “day from which tumor size diverged significantly between control and treated animals” value ([4]; 10 mg/kg/day, p <0.05, ANOVA) was 21 days. For the same compound, the “reduction in ulcer formation” value [5] was 48%, the ulcer score ([5]; ±SD, saline control 12.1±6.85) was 6.3±4.14 and the “flexor response (FIG. 16)” value ([6]; compound alone, similar to morphine) was “depresses the flexor response”. The “duration of the potentiated effect” value ([6]; given with morphine) was 3 h, the “effect on flexor response when given with morphine (FIG. 16)” value ([6]; given with morphine) was “greatly potentiates the effect” and the “time spent in the light section after withdrawal from alcohol (FIG. 9)” value ([7]; alcohol 8% w/v in drinking water 14 days, 24-hour withdrawal, compound 1.0 mg/kg i.p.b.d.) was “demonstrates the effectiveness of the compound”. For the same compound, the “time in the light section after withdrawal from cocaine (FIG. 11)” value ([7]; cocaine 1.0 mg/kg i.p.b.d. 14 days) was “increased time in the light section”, the “time spent in the light section after withdrawal from diazepam (FIG. 7)” value ([7]; diazepam 10 mg/kg i.p.b.d. seven days, 24-hour withdrawal, compound 1.0 mg/kg i.p.b.d.) was “increased time spent in the light section” and the “time spent in the light area after withdrawal from nicotine (FIG. 5)” value ([7]; nicotine 0.1 mg/kg i.p.b.d. 14 days, 24-hour withdrawal, compound 1.0 mg/kg i.p.b.d.) was “increased time spent in the light area”.
